Experimental data from patent US20090062294A1, “HETEROARYL-SUBSTITUTED UREA MODULATORS OF FATTY ACID AMIDE HYDROLASE” (priority 2007, published 2009).

How the values were obtained:
[1] = molecular target: T1, FAAH (Homo sapiens, UniProt O00519); experiment: Assay Method 1: FAAH assay, 3H-anandamide hydrolysis in homogenate of T84 cells or SK-N-MC cells transfected with human FAAH; type: biochemical; conditions: average of results, > = solubility limit or highest concentration tested
T1 sequence (O00519 1-579): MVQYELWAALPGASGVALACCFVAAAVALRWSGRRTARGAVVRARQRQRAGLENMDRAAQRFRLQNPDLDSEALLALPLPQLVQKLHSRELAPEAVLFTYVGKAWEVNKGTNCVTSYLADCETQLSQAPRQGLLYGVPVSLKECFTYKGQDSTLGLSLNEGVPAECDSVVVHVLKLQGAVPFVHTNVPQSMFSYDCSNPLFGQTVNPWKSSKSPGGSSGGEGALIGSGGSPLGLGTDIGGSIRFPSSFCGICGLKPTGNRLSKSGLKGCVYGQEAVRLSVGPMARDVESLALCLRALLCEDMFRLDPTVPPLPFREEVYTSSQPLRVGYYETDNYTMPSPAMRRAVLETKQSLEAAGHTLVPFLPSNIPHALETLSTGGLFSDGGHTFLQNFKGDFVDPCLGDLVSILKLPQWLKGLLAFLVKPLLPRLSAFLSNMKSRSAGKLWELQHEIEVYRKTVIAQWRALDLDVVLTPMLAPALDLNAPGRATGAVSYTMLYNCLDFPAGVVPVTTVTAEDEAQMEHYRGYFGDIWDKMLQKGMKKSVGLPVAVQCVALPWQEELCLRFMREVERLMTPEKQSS
Outline: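 Homogenates of T84 cells or of SK-N-MC cells stably transfected with human FAAH (G418-selected) were prepared in pH 9 Tris/EDTA/glycerol/Triton buffer. They were incubated with compound and 80 nM final ^3H-anandamide for 1 h at rt. Released ^3H-ethanolamine was separated on activated charcoal and counted by scintillation.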

[2] = molecular target: T2, rat FAAH (Rattus norvegicus, UniProt P97612); experiment: Assay Method 2: FAAH assay, 3H-anandamide hydrolysis in homogenate of SK-N-MC cells transfected with rat FAAH; type: biochemical; conditions: average of results, > = solubility limit or highest concentration tested
T2 sequence (P97612 1-579): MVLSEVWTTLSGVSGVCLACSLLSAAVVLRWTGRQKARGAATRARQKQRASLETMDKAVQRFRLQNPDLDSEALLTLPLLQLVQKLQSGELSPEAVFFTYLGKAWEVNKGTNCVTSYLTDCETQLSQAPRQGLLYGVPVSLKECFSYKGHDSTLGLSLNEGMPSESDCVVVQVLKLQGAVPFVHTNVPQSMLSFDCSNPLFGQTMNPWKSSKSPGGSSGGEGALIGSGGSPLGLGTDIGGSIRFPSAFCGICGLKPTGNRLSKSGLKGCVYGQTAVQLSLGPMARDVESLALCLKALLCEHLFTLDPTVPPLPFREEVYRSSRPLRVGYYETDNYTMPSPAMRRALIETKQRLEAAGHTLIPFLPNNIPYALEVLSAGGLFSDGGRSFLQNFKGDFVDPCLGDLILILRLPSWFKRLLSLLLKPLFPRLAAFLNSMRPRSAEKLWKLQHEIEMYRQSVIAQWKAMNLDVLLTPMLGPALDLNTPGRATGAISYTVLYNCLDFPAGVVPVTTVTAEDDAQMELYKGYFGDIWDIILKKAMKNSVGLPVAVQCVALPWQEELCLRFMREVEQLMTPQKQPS
Outline: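 Homogenate of SK-N-MC cells stably transfected with rat FAAH cDNA (G418-selected clones) in pH 9 Tris/EDTA/glycerol/Triton buffer. Incubated with compound and 80 nM final [3H]-anandamide for 1 h at rt. Released [3H]-ethanolamine separated from substrate on activated charcoal filters and counted by scintillation.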

| Structure (SMILES) | IC50 [1] [nM] | IC50 [2] [nM] |
| --- | --- | --- |
| O=C(Nc1noc2ccccc12)N1CCN(Cc2cccc(Oc3ccc(S(=O)(=O)C(F)(F)F)cc3)c2)CC1 [Example 132, N-1,2-Benzisoxazol-3-yl-4-(3-{4-[(trifluoromethyl)sulfonyl]phenoxy}-benzyl)piperazine-1-carboxamide] | 23 | 5 |
| O=C(Nc1noc2ccccc12)N1CCN(Cc2cccc(C#Cc3ccccc3)c2)CC1 [Example 133, N-1,2-Benzisoxazol-3-yl-4-{[3-(phenylethynyl)phenyl]methyl}piperazine-1-carboxamide] | 24 | 115 |
| O=C(Nc1ccon1)N1CCN(Cc2cccc(Oc3ccc(OC(F)(F)F)cc3)c2)CC1 [Example 134, N-Isoxazol-3-yl-4-{3-[4-(trifluoromethoxy)phenoxy]benzyl}piperazine-1-carboxamide] | 10 | 100 |
| O=C(Nc1ccon1)N1CCN(Cc2cccc(Oc3cccc(Cl)c3)c2)CC1 [Example 136, 4-[3-(3-Chlorophenoxy)benzyl]-N-isoxazol-3-ylpiperazine-1-carboxamide] | 55 | 1000 |
| O=C(Nc1ccon1)N1CCN(Cc2cccc(Oc3ccc(OCC(F)(F)F)cc3)c2)CC1 [Example 137, N-Isoxazol-3-yl-4-{3-[4-(2,2,2-trifluoroethoxy)phenoxy]benzyl}piperazine-1-carboxamide] | 60 | 360 |
| O=C(Nc1ccon1)N1CCN(Cc2cc3ccccc3o2)CC1 [Example 138, 4-(1-Benzofuran-2-ylmethyl)-N-isoxazol-3-ylpiperazine-1-carboxamide] | 5000 | > 10000 |
| N#Cc1cccc(Oc2cccc(CN3CCN(C(=O)Nc4ccon4)CC3)c2)c1 [Example 139, 4-[3-(3-Cyanophenoxy)benzyl]-N-isoxazol-3-ylpiperazine-1-carboxamide] | 860 | > 10000 |
| O=C(Nc1ccon1)N1CCN(Cc2cccc(Oc3ccccc3Cl)c2)CC1 [Example 140, 4-[3-(2-Chlorophenoxy)benzyl]-N-isoxazol-3-ylpiperazine-1-carboxamide] | 700 | 6000 |
| O=C(Nc1ccon1)N1CCN(Cc2cccc(Oc3ccc4c(c3)OC(F)(F)O4)c2)CC1 [Example 141, 4-{3-[(2,2-Difluoro-1,3-benzodioxol-5-yl)oxy]benzyl}-N-isoxazol-3-ylpiperazine-1-carboxamide] | 50 | 870 |
| O=C(Nc1ccon1)N1CCN(Cc2ccc3c(c2)OCO3)CC1 [Example 143, 4-(1,3-Benzodioxol-5-ylmethyl)-N-isoxazol-3-ylpiperazine-1-carboxamide] | > 10000 | > 10000 |
| O=C(Nc1ccon1)N1CCN(Cc2ccc3ccccc3c2)CC1 [Example 144, N-Isoxazol-3-yl-4-(naphthalen-2-ylmethyl)piperazine-1-carboxamide] | 350 | 3000 |
| O=C(Nc1ccon1)N1CCN(Cc2cccc(Oc3ccc(Br)cc3)c2)CC1 [Example 145, 4-[3-(4-Bromophenoxy)benzyl]-N-isoxazol-3-ylpiperazine-1-carboxamide] | 16 | 430 |
| O=C(Nc1ccon1)N1CCN(Cc2ccc(Br)cc2)CC1 [Example 148, 4-(4-Bromo-benzyl)-piperazine-1-carboxylic acid isoxazol-3-ylamide] | 5000 | > 10000 |
| O=C(Nc1ccon1)N1CCN(Cc2cccc(Oc3ccc4ccccc4c3)c2)CC1 [Example 150, 4-[3-(Naphthalen-2-yloxy)-benzyl]-piperazine-1-carboxylic acid isoxazol-3-ylamide] | 400 | 1200 |
| O=C(Nc1ccon1)N1CCN(Cc2ccc(Br)c(F)c2)CC1 [Example 151, 4-(4-Bromo-3-fluoro-benzyl)-piperazine-1-carboxylic acid isoxazol-3-ylamide] | 3000 | 6000 |
| N#Cc1ccc(Oc2cccc(CN3CCN(C(=O)Nc4ccon4)CC3)c2)cc1 [Example 152, 4-[3-(4-Cyano-phenoxy)-benzyl]-piperazine-1-carboxylic acid isoxazol-3-ylamide] | 330 | 5000 |
| O=C(Nc1ccon1)N1CCN(Cc2cccc(Oc3ccc(F)c(F)c3)c2)CC1 [Example 153, 4-[3-(3,4-Difluorophenoxy)benzyl]-N-isoxazol-3-ylpiperazine-1-carboxamide] | 460 | 8000 |
| O=C(Nc1ccon1)N1CCN(Cc2cccc(Oc3ccc(SC(F)(F)F)cc3)c2)CC1 [Example 155, N-Isoxazol-3-yl-4-(3-{4-[(trifluoromethyl)sulfanyl]phenoxy}benzyl)-piperazine-1-carboxamide] | 20 | 270 |
| O=C(Nc1ccon1)N1CCN(Cc2cccc(Oc3ccc(F)c(C(F)(F)F)c3)c2)CC1 [Example 156, 4-{3-[4-Fluoro-3-(trifluoromethyl)phenoxy]benzyl}-N-isoxazol-3-ylpiperazine-1-carboxamide] | 43 | 5000 |
| O=C(Nc1ccon1)N1CCN(Cc2cccc(Oc3cccc(Br)c3)c2)CC1 [Example 157, 4-[3-(3-Bromophenoxy)benzyl]-N-isoxazol-3-ylpiperazine-1-carboxamide] | 80 | 360 |
| O=C(Nc1ccon1)N1CCN(Cc2cccc(Oc3ccc(S(=O)(=O)C(F)(F)F)cc3)c2)CC1 [Example 158, N-Isoxazol-3-yl-4-(3-{4-[(trifluoromethyl)sulfonyl]phenoxy}benzyl)-piperazine-1-carboxamide] | 10 | 150 |
| O=C(Nc1ccon1)N1CCN(Cc2cccc(Oc3cccc(OC(F)(F)F)c3)c2)CC1 [Example 159, N-Isoxazol-3-yl-4-{3-[3-(trifluoromethoxy)phenoxy]benzyl}piperazine-1-carboxamide] | 50 | 300 |
| O=C(Nc1ccon1)N1CCN(Cc2ccc(Cl)c(Cl)c2)CC1 [Example 160, 4-(3,4-Dichlorobenzyl)-N-isoxazol-3-ylpiperazine-1-carboxamide] | 3000 | 8000 |
| O=C(Nc1ccon1)N1CCN(Cc2cccc(Oc3ccc(C(F)(F)F)cc3)c2)CC1 [Example 161, N-isoxazol-3-yl-4-{3-[4-(trifluoromethyl)phenoxy]benzyl}piperazine-1-carboxamide] | 4 | 160 |
| O=C(Nc1ccon1)N1CCN(Cc2cccc(Oc3ccc4ncccc4c3)c2)CC1 [Example 162, N-Isoxazol-3-yl-4-[3-(quinolin-6-yloxy)benzyl]piperazine-1-carboxamide] | 240 | 6400 |
| N#Cc1ccc(Oc2cccc(CN3CCN(C(=O)Nc4ccon4)CC3)c2)cc1C(F)(F)F [Example 163, 4-{3-[4-Cyano-3-(trifluoromethyl)phenoxy]benzyl}-N-isoxazol-3-ylpiperazine-1-carboxamide] | 1000 | > 10000 |
| Cc1cc(NC(=O)N2CCN(Cc3cccc(Oc4ccc(Cl)cc4)c3)CC2)no1 [Example 164, 4-[3-(4-Chlorophenoxy)benzyl]-N-(5-methylisoxazol-3-yl)piperazine-1-carboxamide] | 141 | 7000 |
| O=C(Nc1nnn[nH]1)N1CCN(Cc2cnc3ccccc3c2)CC1 [Example 165, 4-(Quinolin-3-ylmethyl)-N-1H-tetrazol-5-ylpiperazine-1-carboxamide] | 8000 | 6000 |
| O=C(Nc1nn[nH]n1)N1CCN(Cc2cccc(Oc3ccc4ccccc4c3)c2)CC1 [Example 166, 4-[3-(Naphthalen-2-yloxy)benzyl]-N-1H-tetrazol-5-ylpiperazine-1-carboxamide] | 13 | 7 |
| O=C(Nc1nn[nH]n1)N1CCN(Cc2ccc(Br)c(Br)c2)CC1 [Example 167, 4-(3,4-Dibromobenzyl)-N-1H-tetrazol-5-ylpiperazine-1-carboxamide] | 340 | 80 |
